SMILES strings stand for the structures. Values after ≈ are worked out from the molar mass of the structure shown. “Also recorded” adds a separate entry of the source.

What all share (assay type): cell-based
For one assay, the system named is C. albicans ATCC 90028. The assay can be described thus: microbe, parasite or virus in culture. Particulars: ATCC 90028, pH 7. The procedure, abridged:
(§1)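 RPMI pH 7.0 (CLSI), 2-fold serial dilutions, 1.25% DMSO final (investigational). Inoc: Candida 0.5 McF 1:100; Aspergillus ~0.2-2.5×10^4 CFU/mL. 35° C., ~24-48 hr. MIC = no visible growth; MEC = small compact hyphae vs growth control.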

For assay [1], the system named is C. parapsilosis ATCC 22019. Briefly: microbe, parasite or virus in culture. The note with it: ATCC 22019, pH 7. The procedure, abridged:
as §1

For a further assay, the system named is C. krusei ATCC 14243. Briefly: microbe, parasite or virus in culture. The note with it: ATCC 14243, pH 7. The procedure, abridged:
as §1

The next assay deals with C. glabrata ATCC 90030. Briefly: microbe, parasite or virus in culture. Particulars: ATCC 90030, pH 7. The procedure, abridged:
as §1

For assay [2], the system named is Neutrophils purified from human peripheral blood. The assay can be described thus: Human Neutrophil Transwell Migration Assay. Particulars: 37° C., 45 minutes, % of the maximum migration possible. An excerpt:
Neutrophils were purified from human peripheral blood utilizing PolymorphPrep. Red blood cells were lysed with a lysis buffer and the cells were washed, counted and resuspended in assay buffer. Neutrophils (approximately 50,000 to 100,000 in number) were placed over 5-micon pore sized transwell plates in 24-well format with test compounds in the bottom chamber of each well. A negative control of media alone in the bottom chamber was set up in triplicate. A positive control where the neutrophils were added directly to the bottom well was set up in triplicate.
The plates were incubated at 37° C. for 45 minutes to allow for migration. After this time, migration was confirmed visually and then an aliquot (⅙^th of total cells) from each well was taken for ATP detection via luminescence with ATPlite (PerkinElmer) to quantify the number of migrated cells. The averaged reading for random migration detected in the negative control was subtracted from all readings to obtain the corrected migration number. These numbers were then divided by the averaged reading from the positive control to get the % Neutrophil Migration of the maximum migration possible.

Another assay has as its system A. fumigatus ATCC 13073. Briefly: MEC assay (Example 31). Particulars: RPMI pH 7.0, 35° C., 24-48 hr. The procedure, abridged:
as §1

For another assay, the system named is A. fumigatus MX 5944. The assay can be described thus: MEC assay (Example 31). Particulars: RPMI pH 7.0, 35° C., 24-48 hr. The procedure, abridged: as §1
For the next assay, the system named is A. flavus MX 5948. Briefly: MEC assay (Example 31). Particulars: RPMI pH 7.0, 35° C., 24-48 hr. The procedure, abridged:
as §1

Another assay relates to A. fumigatus MYA-3626. The assay can be described thus: MEC assay (Example 31). The note with it: RPMI pH 7.0, 35° C., 24-48 hr. The procedure, abridged: as §1
A further assay relates to A. fumigatus MYA-4609. The assay can be described thus: MEC assay (Example 31). Particulars: RPMI pH 7.0, 35° C., 24-48 hr. The procedure, abridged:
as §1

The test system of a further assay is human neutrophils. Briefly: Microfluidic Neutrophil Chemotaxis assay. Particulars: for neutrophil (NF) migration counts (FIG. 1): 4 hour timepoint, relative to A. fumigatus alone. An excerpt:
Two layers of photoresist (SU8; […] The wafer with patterned photoresist was used as a mold to produce polydimethylsiloxane (PDMS) (Fisher Scientific) devices, which were then bonded to the base of glass-bottom 12- or 24-well plates, using an oxygen plasma machine (Nordson-March). De-identified, fresh human blood samples from healthy volunteers, aged 18 years and older, who were not receiving immunosuppressants, were purchased from Research Blood Components, LLC. Peripheral blood was drawn in tubes containing a final concentration of 5 mM EDTA (Vacutainer; Becton Dickinson) and processed within 2 h of blood collection. Using a sterile technique, neutrophils were isolated from whole blood using HetaSep followed by the EasySep Human Neutrophil Enrichment Kit (STEMCELL Technologies) following the manufacturer's protocol. The purity of neutrophils was assessed to be >98% using the Sysmex KX-21N Hematology Analyzer (Sysmex America, Inc.). White blood cells were isolated using Hetasep followed by a 5 min spin down and wash with 1×PBS. White blood cells were stained with Hoechst (32.4 μM) (Sigma) following the manufacture's protocols. The final aliquots of white blood cells were resuspended in RPMI plus 10% fetal bovine serum (FBS−stock 50 mL FBS/450 mL RPMI) (Sigma-Aldrich) at a concentration of 20,000 cells/2 μL and kept at 37° C. Cells were then immediately introduced into the microfluidic device for the chemotaxis and Aspergillus fumigatus killing assay. All experiments were repeated at least three times with neutrophils or white blood cells from three different healthy donors. Immediately after bonding to the well plate, donut-shaped devices were filled with Aspergillus fumigatus conidia at a concentration of 10^6 cells/mL with or without either Compound 1 or Compound 11 [10 nM], caspofungin acetate [10 nM] and/or a solution of the chemoattractant N-formyl-methionyl-leucyl-phenylalanine (fMLP) [100 nM](Sigma-Aldrich, St. Louis, Mo.). The device was then placed in a vacuum for 15 min. The solution filled all of the FCCs as the air was displaced. The devices were then vigorously washed five times with 1×PBS to remove any residual Aspergillus fumigatus conidia, drug or chemoattractant that was outside of the FCCs. The device was then submerged in 0.5 mL of cell media. Neutrophils or white blood cells (20,000 cells/2 μL) were then pipetted into the cell loading chamber (CLC) using a gel-loading pipette tip. […] Image analysis of cell migration counts and fungi growth was analyzed by hand using Image J software. Neutrophil counts per chamber were counted every 15 min for the first 2 hours of the experiment and then every hour for the remaining 16 hours. Percentage of conidia that converted to hyphal growth was measured by counting conidia loaded per chamber before neutrophils or WBCs were loaded into the chamber and counting numbers of these conidia that grew hyphae by 18 hours. Fungal growth velocity was calculated using Image J. The 16 chambers in each device (n=3) were analyzed for at least three different healthy donors.

Assay [3] has as its system Aspergillus fumigatus strain AF293. Briefly: Microfluidic Aspergillus fumigatus Killing Assay with human neutrophils. An excerpt: Microfluidic devices used to measure leukocyte migration in response to Aspergillus fumigatus with or without drug (Compound 1 or Compound 11), antifungal control (caspofungin acetate) and/or chemoattractant (fMLP) were manufactured using known microfabrication techniques. Two layers of photoresist (SU8; Microchem), the first one 10 μm thin (corresponding to the migration channels) and the second one 70 μm thick, corresponding to the focal chemotactic chambers (FCCs) were patterned on one silicon wafer sequentially using two photolithographic masks and processing cycles according to the instructions from the manufacturer. The wafer with patterned photoresist was used as a mold to produce polydimethylsiloxane (PDMS) (Fisher Scientific) devices, which were then bonded to the base of glass-bottom 12- or 24-well plates, using an oxygen plasma machine (Nordson-March).
Aspergillus fumigatus strain AF293 expressing either cytosolic red fluorescent protein (RFP) or green fluorescent protein (GFP) was grown on Sabouraud dextrose agar plates supplemented with 100 μg/mL ampicillin at 30° C. for 3-4 days. Conidia were harvested by gentle scraping followed by washing in ice-cold phosphate buffered saline (PBS) three times. Conidia were immediately used or stored at 4° C. for use within one week.
De-identified, fresh human blood samples from healthy volunteers, aged 18 years and older, who were not receiving immunosuppressants, were purchased from Research Blood Components, LLC. Peripheral blood was drawn in tubes containing a final concentration of 5 mM EDTA (Vacutainer; Becton Dickinson) and processed within 2 h of blood collection. Using a sterile technique, neutrophils were isolated from whole blood using HetaSep followed by the EasySep Human Neutrophil Enrichment Kit ([…] Technologies) following the manufacturer's protocol. The purity of neutrophils was assessed to be >98% using the Sysmex KX-21N Hematology Analyzer (Sysmex America, Inc.). White blood cells were isolated using Hetasep followed by a 5 min spin down and wash with 1×PBS. White blood cells were stained with Hoechst (32.4 μM) (Sigma) following the manufacture's protocols. The final aliquots of white blood cells were resuspended in RPMI plus 10% fetal bovine serum (FBS−stock 50 mL FBS/450 mL RPMI) (Sigma-Aldrich) at a concentration of 20,000 cells/2 μL and kept at 37° C. Cells were then immediately introduced into the microfluidic device for the chemotaxis and Aspergillus fumigatus killing assay. All experiments were repeated at least three times with neutrophils or white blood cells from three different healthy donors.
Immediately after bonding to the well plate, donut-shaped devices were filled with Aspergillus fumigatus conidia at a concentration of 10^6 cells/mL with or without either Compound 1 or Compound 11 [10 nM], caspofungin acetate [10 nM] and/or a solution of the chemoattractant N-formyl-methionyl-leucyl-phenylalanine (fMLP) [100 nM](Sigma-Aldrich, St. Louis, Mo.). The device was then placed in a vacuum for 15 min. The solution filled all of the FCCs as the air was displaced. The devices were then vigorously washed five times with 1×PBS to remove any residual Aspergillus fumigatus conidia, drug or chemoattractant that was outside of the FCCs. The device was then submerged in 0.5 mL of cell media. Neutrophils or white blood cells (20,000 cells/2 μL) were then pipetted into the cell loading chamber (CLC) using a gel-loading pipette tip. Neutrophil migration into the migration channel toward the FCC started immediately and was recorded using time-lapse imaging on a fully automated Nikon TiE microscope (10× magnification) with biochamber heated to 37° C. with 5% carbon dioxide gas. Image analysis of cell migration counts and fungi growth was analyzed by hand using Image J software.
Image analysis of cell migration counts and fungi growth was analyzed by hand using Image J software.

Regarding `CC[C@H](C)C[C@H](C)CCCCCCCCC(=O)N[C@H]1C[C@@H](O)[C@@H](NCCN)NC(=O)[C@@H]2[C@@H](O)CCN2C(=O)[C@H]([C@H](O)CCNC(=O)[C@H](CCSC)NC(=O)[C@H](CC(C)C)NC(=O)[C@H](CCSC)NC=O)NC(=O)[C@H]([C@H](O)[C@@H](O)c2ccc(O)cc2)NC(=O)[C@@H]2C[C@@H](O)CN2C(=O)[C@H]([C@@H](C)O)NC1=O` [Compound 28], the MIC was 1 µg/mL (≈ 0.668 µM) against C. albicans ATCC 90028, 8 µg/mL (≈ 5.34 µM) in assay [1], 8 µg/mL (≈ 5.34 µM) against C. krusei ATCC 14243 and 2 µg/mL (≈ 1.34 µM) in the assay with C. glabrata ATCC 90030. In addition, the “% Neutrophil Migration” value was −0.4% in assay [2] (conc 0.001 μg/mL); 2.2% in assay [2] (conc 0.01 μg/mL); 43.4% in assay [2] (conc 0.1 μg/mL); −0.2% in assay [2] (conc 1 μg/mL); −7.4% in assay [2] (conc 10 μg/mL). In addition, the MEC was found to be 0.25 µg/mL in the assay with A. fumigatus ATCC 13073; 0.25 µg/mL in the assay on A. fumigatus MX 5944; 0.12 µg/mL in the assay with A. flavus MX 5948; 0.25 µg/mL with A. fumigatus MYA-3626; 0.25 µg/mL with A. fumigatus MYA-4609.
`CC[C@H](C)C[C@H](C)CCCCCCCCC(=O)N[C@H]1C[C@@H](O)[C@@H](NCCN)NC(=O)[C@@H]2[C@@H](O)CCN2C(=O)[C@H]([C@H](O)CCNC(=O)[C@H](CO)NC(=O)[C@H](CC(C)C)NC(=O)[C@H](CCSC)NC=O)NC(=O)[C@H]([C@H](O)[C@@H](O)c2ccc(O)cc2)NC(=O)[C@@H]2C[C@@H](O)CN2C(=O)[C@H]([C@@H](C)O)NC1=O` [Compound 29]: the MIC in the assay with C. albicans ATCC 90028 was 2 µg/mL (≈ 1.38 µM); in assay [1] it was above 32 µg/mL; in the assay on C. krusei ATCC 14243, 32 µg/mL (≈ 22 µM); in the assay with C. glabrata ATCC 90030, 8 µg/mL (≈ 5.51 µM). Further, the “% Neutrophil Migration” value in assay [2] (conc 0.001 μg/mL) is recorded as 1.4%; in [2] (conc 0.01 μg/mL) it was 0.1%; in assay [2] (conc 0.1 μg/mL), 2.2%; in assay [2] (conc 1 μg/mL), 11.0%; in assay [2] (conc 10 μg/mL), 8.4%. Besides, the MEC in the assay on A. fumigatus ATCC 13073 stood at 0.5 µg/mL; in the assay with A. fumigatus MX 5944, 0.25 µg/mL; in the assay with A. flavus MX 5948 it was 0.25 µg/mL; in the assay with A. fumigatus MYA-3626 it was 0.25 µg/mL; in the assay on A. fumigatus MYA-4609, 0.25 µg/mL.
With `CSCC[C@H](NC=O)C(=O)N[C@@H](CC(C)C)C(=O)N[C@@H](Cc1ccccc1)C(=O)O` [fMLP, N-formyl-methionyl-leucyl-phenylalanine, reference compound], the “neutrophil (NF) migration counts (FIG. 1)” value is “increased NF migration” with human neutrophils (100 nM fMLP alone, no A. fumigatus) and “increased NF migration” in the assay with human neutrophils (in the presence of Aspergillus fumigatus, Compound 1, Compound 11, caspofungin acetate 10 nM, fMLP 100 nM). In addition, in the assay on human neutrophils (with A. fumigatus, three healthy blood donors, t=0, 8, and 16 hours), the “timecourse of neutrophil (PMNs) migration in FCCs (FIG. 4)” value is reported as “migration of PMNs”. The “timecourse of A. fumigatus (Af) growth in FCCs (FIG. 4)” value in assay [3] (in presence of PMNs, three healthy blood donors, t=0, 8, and 16 hours) is “inhibition of growth of Af”. Also, in assay [3] (with added neutrophils (NFs), Compound 1, Compound 11, caspofungin acetate 10 nM, fMLP 100 nM, hyphae by 18 hours), the “percent hyphal growth compared to remaining conidia (FIG. 2)” value is given as “inhibition of Aspergillus fumigatus hyphal growth; also recorded: able to suppress hyphal growth”.

Source of the values: US20160213742A1, “COMPOSITIONS AND METHODS FOR THE TREATMENT OF FUNGAL INFECTIONS” (priority 2013, published 2016).
